Assay results published in PubChem BioAssay AID2060493 (Molecular Pharmacology Branch, DTP, NCI, 2025).

Test system: 616215-338-R-J1-PDC tumor spheroids, viability
Experiment: Anticancer human tumor 616215-338-R-J1-PDC patient-derived colon adenocarcinoma cell line growth inhibition [GQUAD]
Conditions: spheroids with HUVEC and MSC; for IC50: curve of first compound; for viability, T/C: stronger effect = lower value
Outline: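 Tumor cells were grown as complex spheroids with HUVEC endothelial cells and mesenchymal stem cells as stroma. G-quadruplex stabilizers were combined with targeted agents over half-log dilutions from near the clinical Cmax, or from 10 microM.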

[1] = second compound 0.0316 µM, first compound 0.0316 µM
[2] = second compound 0.0316 µM, first compound 0.1 µM
[3] = second compound 0.0316 µM, first compound 0.316 µM
[4] = second compound 0.0316 µM, first compound 1 µM
[5] = second compound 0.0316 µM, first compound 3.16 µM
[6] = second compound 0.0316 µM, first compound 10 µM
[7] = second compound 0.1 µM, first compound 0.0316 µM
[8] = second compound 0.1 µM, first compound 0.1 µM
[9] = second compound 0.1 µM, first compound 0.316 µM
[10] = second compound 0.1 µM, first compound 1 µM
[11] = second compound 0.1 µM, first compound 3.16 µM
[12] = second compound 0.1 µM, first compound 10 µM
[13] = second compound 0.316 µM, first compound 0.0316 µM
[14] = second compound 0.316 µM, first compound 0.1 µM
[15] = second compound 0.316 µM, first compound 0.316 µM
[16] = second compound 0.316 µM, first compound 1 µM
[17] = second compound 0.316 µM, first compound 3.16 µM
[18] = second compound 0.316 µM, first compound 10 µM
[19] = second compound 1 µM, first compound 0.0316 µM
[20] = second compound 1 µM, first compound 0.1 µM
[21] = second compound 1 µM, first compound 0.316 µM
[22] = second compound 1 µM, first compound 1 µM
[23] = second compound 1 µM, first compound 3.16 µM
[24] = second compound 1 µM, first compound 10 µM
[25] = second compound 3.16 µM, first compound 0.0316 µM
[26] = second compound 3.16 µM, first compound 0.1 µM
[27] = second compound 3.16 µM, first compound 0.316 µM
[28] = second compound 3.16 µM, first compound 1 µM
[29] = second compound 3.16 µM, first compound 3.16 µM
[30] = second compound 3.16 µM, first compound 10 µM
[31] = second compound 10 µM, first compound 0.0316 µM
[32] = second compound 10 µM, first compound 0.1 µM
[33] = second compound 10 µM, first compound 0.316 µM
[34] = second compound 10 µM, first compound 1 µM
[35] = second compound 10 µM, first compound 3.16 µM
[36] = second compound 10 µM, first compound 10 µM
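Also: spheroids exposed to agents for 7 days before readout.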
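For viability, T/C in this document: percent viability relative to DMSO vehicle control wells taken as 100%.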

CC(=O)O[C@H]1C(=O)[C@@]2(C)[C@H]([C@H](OC(=O)c3ccccc3)[C@]3(O)C[C@H](OC(=O)[C@H](O)[C@@H](NC(=O)c4ccccc4)c4ccccc4)C(C)=C1C3(C)C)[C@]1(OC(C)=O)CO[C@@H]1C[C@@H]2O + Cc1[nH]c2ccc(F)cc2c1-c1nc2c3cccnc3c3ncccc3c2[nH]1
IC50 (second compound 0.0316 µM): < 31.6 nM | IC50 (second compound 0.1 µM): < 31.6 nM | IC50 (second compound 0.316 µM): < 31.6 nM | IC50 (second compound 1 µM): < 31.6 nM | IC50 (second compound 3.16 µM): < 31.6 nM | IC50 (second compound 10 µM): < 31.6 nM | viability, T/C [1]: 25.5% | viability, T/C [2]: 21.1% | viability, T/C [3]: 16.1% | viability, T/C [4]: 14.5% | viability, T/C [5]: 13.6% | viability, T/C [6]: 12.9% | viability, T/C [7]: 31.7% | viability, T/C [8]: 15.6% | viability, T/C [9]: 15.4% | viability, T/C [10]: 12.1% | viability, T/C [11]: 11.7% | viability, T/C [12]: 13.8% | viability, T/C [13]: 22.9% | viability, T/C [14]: 18.9% | viability, T/C [15]: 15.5% | viability, T/C [16]: 11.6% | viability, T/C [17]: 13.1% | viability, T/C [18]: 11.6% | viability, T/C [19]: 19.6% | viability, T/C [20]: 12.4% | viability, T/C [21]: 12.8% | viability, T/C [22]: 11.8% | viability, T/C [23]: 13.2% | viability, T/C [24]: 14.7% | viability, T/C [25]: 14.9% | viability, T/C [26]: 14.7% | viability, T/C [27]: 15.1% | viability, T/C [28]: 10.2% | viability, T/C [29]: 10.8% | viability, T/C [30]: 11.1% | viability, T/C [31]: 16% | viability, T/C [32]: 12.5% | viability, T/C [33]: 14.9% | viability, T/C [34]: 11.5% | viability, T/C [35]: 10.1% | viability, T/C [36]: 10.8%

COc1cc(C2c3cc4c(cc3C(OC3OC5COC(C)OC5C(O)C3O)C3COC(=O)C23)OCO4)cc(OC)c1O (centres undefined) + CN(C)c1ccc(Nc2c3ccc(NC(=O)CCN4CCCC4)cc3nc3cc(NC(=O)CCN4CCCC4)ccc23)cc1
IC50 (second compound 0.0316 µM): 967 nM | IC50 (second compound 0.1 µM): 655 nM | IC50 (second compound 0.316 µM): 693 nM | IC50 (second compound 1 µM): 762 nM | IC50 (second compound 3.16 µM): 644 nM | IC50 (second compound 10 µM): 491 nM | viability, T/C [1]: 99.3% | viability, T/C [2]: 103% | viability, T/C [3]: 67.8% | viability, T/C [4]: 51.9% | viability, T/C [5]: 31.9% | viability, T/C [6]: 20.7% | viability, T/C [7]: 94.7% | viability, T/C [8]: 107% | viability, T/C [9]: 71.6% | viability, T/C [10]: 37.5% | viability, T/C [11]: 31% | viability, T/C [12]: 18.7% | viability, T/C [13]: 100% | viability, T/C [14]: 95.6% | viability, T/C [15]: 63.4% | viability, T/C [16]: 41% | viability, T/C [17]: 33.1% | viability, T/C [18]: 16.6% | viability, T/C [19]: 100% | viability, T/C [20]: 91.6% | viability, T/C [21]: 58.5% | viability, T/C [22]: 44.6% | viability, T/C [23]: 34.3% | viability, T/C [24]: 14.2% | viability, T/C [25]: 96.4% | viability, T/C [26]: 85% | viability, T/C [27]: 55.9% | viability, T/C [28]: 43.6% | viability, T/C [29]: 31.6% | viability, T/C [30]: 15.9% | viability, T/C [31]: 97.2% | viability, T/C [32]: 83.2% | viability, T/C [33]: 52.6% | viability, T/C [34]: 40% | viability, T/C [35]: 25.9% | viability, T/C [36]: 15%
